This series concerns healthy balb/C mice. Put plainly: Tolerability of intraperitoneal pirfenidone dose. It is filed as in vivo. To be noted: free drug in 10% ethanol in PBS, 200 mg/kg. On the procedure:
Pirfenidone was dissolved in a 10% ethanol in PBS solution and administered intraperitoneally to healthy balb/C mice. The intraperitoneal pirfenidone dose was 200 mg/kg. […] However, the same dose was well-tolerated using albumin nanoparticles containing pirfenidone. The nanoparticles were injected twice daily for a total dose of 200 mg/kg per day for 16 days. This example highlights the ability of drug-loaded nanoparticles to slowly release drugs and lower their toxic side effects.

As to `Cc1ccc(=O)n(-c2ccccc2)c1` [Pirfenidone, pirfenidone], the Tolerability entry is on record as “immediate neurological symptoms in the mice as well as death”.
